Test results from patent US11325937B2, “Glycoside compound and preparation method therefor, composition, application, and intermediate” (SHANGHAI HUTCHISON PHARMACEUTICALS LIMITED, priority 2018, dated 2022).

Test system: VEGF-A mRNA expression in macrophages (RAW264.7)
Experiment: In vitro macrophage experiment: activity of compounds to promote VEGF-A mRNA expression (RT-qPCR)
Type: cell-based
Details: Mus musculus, RAW264.7 macrophages, 3 h, no drug = 1, read-out: Expression level of VEGF-A mRNA; for fold induction at 1 µM: relative expression 2^-ΔΔCt; for fold induction at 100 µM: 0.1 mM; for fold induction at 100 µM / fold induction at 500 µM / fold induction at 1000 µM / fold induction at 2000 µM / fold induction at 3000 µM: relative expression; for fold induction at 500 µM: 0.5 mM; for fold induction at 1000 µM: 1 mM; for fold induction at 2000 µM: 2 mM; for fold induction at 3000 µM: 3 mM
Description: 1.1. Specific steps for activity screening: 1-10×10^6 macrophages (RAW264.7) in logarithmic growth phase were transferred to a cell culture plate. The test compounds (Compounds TG-001, TG-002, TG-003, TG-004, TG-005, TG-006, TG-007, TG-008, TG-009, TG-010, TG-011, TG-012, TG-013, TG-014, TG-015, TG-016, TG-017, TG-018, TG-019, TG-020, TG-021, TG-022, TG-023, TG-024, TG-025, TG-026, TG-027, TG-028, TG-029, TG-030, TG-031, TG-032, TG-033, TG-034, TG-035, TG-036, TG-037, TG-045, TG-039, TG-040 TG-041, TG-042, TG-043, TG-044, TG-045, TG-052, TG-053, TG-054, TG-047, TG-048, TG-046, TG-049, TG-050, TG-051, TG-055 and TG-056) were respectively diluted into various concentrations, and separately added to the cell culture plate containing macrophage. The cells were cultured for 3 h in a complete medium (RPMI 1640 medium:fetal bovine serum:tri-resistance screening agent (i.e. penicillin-streptomycin-gentamicin, Beijing Leagene Biotechnology Co., Ltd.)=89:10:1 based on volume) in a cell incubator at 37° C. and 5% CO2. The cells were lyzed by Trizol (Beijing ComWin Biotech Co., Ltd) to extract RNA, and the RNA concentration was measured using a microvolume nucleic acid and protein analyzer (Nanodrop2000c). The required volume V of RNA was calculated according to the RNA concentration, and the RNA reverse transcription reaction system was prepared according to Table 1. Then RNA reverse transcription (cDNA synthesis) (RT Easy™ I (For first-strand cDNA synthesis) Reverse Transcription Kit, Chengdu ForeGene Biotechnology Co., Ltd.) was carried out according to the conditions described in Table 2. The resulting cDNA was used to prepare a fluorescence quantitative PCR reaction solution according to Table 3. The fluorescence quantitative PCR reaction conditions were set according to Table 4, and the fluorescence quantitative PCR reaction (Real time PCR Easy™-SYBR Green Fluorescence Quantification Kit, Chengdu ForeGene Biotechnology Co., Ltd.) was performed using cDNA from the reverse transcription reaction as a template. The relative expression level 2^−ΔΔCt of the target gene was calculated from the Ct value of each sample with the blank control group as a control and β-Actin as an internal reference.
Based on the maximum level of VEGF-A mRNA expression promoted by a drug at a certain concentration, the activity of the drug was determined. The expression level of VEGF-A mRNA in macrophages was defined as 1 when no drug was added. Using a traditional Chinese medicine injection Salvianolate that is used in the treatment of Cardio-cerebrovascular disease and promotes a maximum level of VEGF-A mRNA expression of 6 in macrophages (the results are shown in Table 5) as a judgment standard, the compound promoting a maximum level of VEGF-A mRNA expression of 4 or more in macrophage was a target compound. That is, when the maximum level of VEGF-A mRNA expression in macrophages promoted by the test compound is over 4-fold higher than the expression level of VEGF-A mRNA in macrophages without the addition of the test compound, the test compound was a preliminary target compound promoting angiogenesis.

Compound: OC[C@H]1O[C@@H](OCCCCc2ccc(OCC3CCCCC3)cc2)[C@H](O)[C@@H](O)[C@@H]1O [TG-016]
- fold induction at 1 µM: 3.09
- fold induction at 100 µM: 1
- fold induction at 500 µM: 1.34
- fold induction at 1000 µM: 1.54
- fold induction at 2000 µM: 2.77
- fold induction at 3000 µM: 17.1

Compound: COc1cc(CCCCO[C@@H]2O[C@H](CO)[C@@H](O)[C@H](O)[C@H]2O)cc(OC)c1OC [TG-007]
- fold induction at 1 µM: 4.38
- fold induction at 100 µM: 1.67
- fold induction at 500 µM: 1.42
- fold induction at 1000 µM: 2.87
- fold induction at 2000 µM: 0.65
- fold induction at 3000 µM: 0.99

Compound: COc1ccc(CCCCO[C@@H]2O[C@H](CO)[C@@H](O[C@@H]3OC(CO)[C@H](O)[C@H](O)[C@H]3O)[C@H](O)[C@H]2O)cc1 (some centres unmarked) [TG-045]
- fold induction at 1 µM: 0.62
- fold induction at 100 µM: 0.99
- fold induction at 500 µM: 0.62
- fold induction at 1000 µM: 0.73
- fold induction at 2000 µM: 1.78
- fold induction at 3000 µM: 0.35

Compound: OC[C@H]1O[C@@H](OCCCCc2ccc(O)cc2)[C@H](O)[C@@H](O)[C@@H]1O [TG-023]
- fold induction at 1 µM: 0.16
- fold induction at 100 µM: 0.55
- fold induction at 500 µM: 0.71
- fold induction at 1000 µM: 0.5
- fold induction at 2000 µM: 0.19
- fold induction at 3000 µM: 0.71

Compound: CC1(C)CCOc2ccc(CCCCO[C@@H]3O[C@H](CO)[C@@H](O)[C@H](O)[C@H]3O)cc21 [TG-042]
- fold induction at 1 µM: 11
- fold induction at 100 µM: 7.25
- fold induction at 500 µM: 9.86
- fold induction at 1000 µM: 1.11
- fold induction at 2000 µM: 0.63
- fold induction at 3000 µM: 0.84

Compound: OC[C@H]1O[C@@H](OCCCCc2ccc(OCc3cccc(F)c3)cc2)[C@H](O)[C@@H](O)[C@@H]1O [TG-027]
- fold induction at 1 µM: 1.66
- fold induction at 100 µM: 6.36
- fold induction at 500 µM: 3.83
- fold induction at 1000 µM: 3.93
- fold induction at 2000 µM: 1.07
- fold induction at 3000 µM: 0.43

Compound: OC[C@H]1O[C@@H](OCCCCc2ccc(OCC3CCCC3)cc2)[C@H](O)[C@@H](O)[C@@H]1O [TG-018]
- fold induction at 1 µM: 0.88
- fold induction at 100 µM: 3.62
- fold induction at 500 µM: 4.15
- fold induction at 1000 µM: 5.26
- fold induction at 2000 µM: 7.24
- fold induction at 3000 µM: 6.53

Compound: OC[C@H]1O[C@@H](OCCCCc2ccc(OCC3CC3)cc2)[C@H](O)[C@@H](O)[C@@H]1O [TG-039]
- fold induction at 1 µM: 1.18
- fold induction at 100 µM: 2.67
- fold induction at 500 µM: 9.43
- fold induction at 1000 µM: 1.7
- fold induction at 2000 µM: 0.3
- fold induction at 3000 µM: 0.18

Compound: CCCCCCCCCCCCCCCCOc1ccc(CCCCO[C@@H]2O[C@H](CO)[C@@H](O)[C@H](O)[C@H]2O)cc1 [TG-043]
- fold induction at 1 µM: 1.16
- fold induction at 100 µM: 1.52
- fold induction at 1000 µM: 3.36
- fold induction at 2000 µM: 4.09
- fold induction at 3000 µM: 4.29

Compound: OC[C@H]1O[C@@H](OCCCCc2ccc(OCC3CCOCC3)cc2)[C@H](O)[C@@H](O)[C@@H]1O [TG-020]
- fold induction at 1 µM: 0.88
- fold induction at 100 µM: 0.93
- fold induction at 500 µM: 2.8
- fold induction at 1000 µM: 3.9
- fold induction at 2000 µM: 2.24
- fold induction at 3000 µM: 2.56

Compound: COc1ccc(CCCCS[C@@H]2O[C@H](CO)[C@@H](O)[C@H](O)[C@H]2O)cc1 [TG-048]
- fold induction at 1 µM: 1.43
- fold induction at 100 µM: 1.26
- fold induction at 500 µM: 4.73
- fold induction at 1000 µM: 11
- fold induction at 2000 µM: 3.81
- fold induction at 3000 µM: 2.19

Compound: COc1ccc(CCS[C@@H]2O[C@H](CO)[C@@H](O)[C@H](O)[C@H]2O)cc1 [TG-047]
- fold induction at 1 µM: 2.12
- fold induction at 100 µM: 1.93
- fold induction at 500 µM: 2.34
- fold induction at 1000 µM: 2.84
- fold induction at 2000 µM: 2.6
- fold induction at 3000 µM: 3.45
